# Source: paper PMC7946228, “Discovery of novel candidates for anti-liposarcoma therapies by medium-scale high-throughput drug screening” (PLoS ONE, 2021)
# Where two headings read alike, the source gives them in different places.
# How the values were obtained:
# [1] = tested on: liposarcoma cell lines; test: Drug withdrawal, reversibility of growth arrest; type: cell-based, human; conditions: for reversibility of growth inhibition after drug removal: then 72h without drug, except T778 with MLN9708
# Procedure: (§1) The cellular proliferation rate was measured using the IncuCyte ZOOM live-cell imaging system (Essen Bioscience, Birmingham, UK) with the corresponding software application (version 2013BRev1). First the growth rate for each cell line was established to estimate the seeding numbers of cells corresponding to 15–30% of confluence at the start of the experiment and maximum 70% after 72h. The drug treatment was initiated approximately 18h after seeding. The proliferation rate was measured as cell confluence over time through the acquisition of photographs under phase contrast every third hour for the entire duration of the drug treatment. During the drug treatment, media were not changed, and cells were not split. The growth reducing drug concentration was defined as lowest drug concentration leading to significant decrease of cellular growth between 40 and 72h after start of treatment. To determine that concentration, plots were generated using IncuCyte software and differences in growth between 40 and 72h were calculated using least-square means with the ‘emmeans’ R package version 1.4.3 [25]. Growth arresting concentrations were defined as minimal drug concentration under which cell confluence between 96 and 120h increases by less than 3%. Though growth arrest occurred much earlier, these time points ensured that the growth arrest is a stable phenomenon. These growth arresting concentrations were used for drug withdrawal, apoptosis and cell cycle experiments. All the data were verified with the plots. The presented values correspond to median values from two (T449, all compounds) to five (all cell lines, triptolide) biological replicates.
# An important prerequisite for clinical implementation of these compounds as treatment for liposarcoma is irreversibility of the induced growth inhibition. We thus assessed if the drugs were only transiently cytostatic, which is especially important in case of the compounds that seem to work mainly via cell cycle arrest (APO866, GSK2126458). Cells were treated with the compounds at growth arresting concentrations for 120h after which the compounds were removed and cell numbers were monitored for another 72h. […] To irreversibly arrest cell proliferation GSK2126458 had to be used at 10x higher concentrations (100x for GOT3) (S5 Fig). Those concentrations are above physiological ranges (see Table 2), and these effects should be accounted for assessing use of GSK2126458 in clinic.
# [2] = tested on: liposarcoma cell lines; test: Cell cycle analysis of non-apoptotic cells (propidium iodide); type: cell-based, human; conditions: growth arresting concentration, non-apoptotic fraction
# Procedure: (§2) Cells were treated with drugs at the concentrations corresponding to previously established growth arresting concentrations and collected between 17 and 72h. Time of collection was individual for every drug/cell line combination; cells were collected after the beginning of complete growth inhibition (based on the growth curves data) but only when first signs of morphological change or cell death were visible (estimated microscopically approximately every 2h). After methanol fixation, cells were barcoded with different combinations of Pacific Blue/Pacific Orange dyes (Thermo Fisher Scientific) for different drug treatments. After mixing, cells were incubated in the TUNEL reaction mix for 1h at 37°C, according to the manufacturer’s instructions (Roche, Germany), stained with Streptavidin-Cy5 conjugated Ab and digested with RNAse. Cells were counter-stained with propidium iodide and analyzed using LSR II Flow Cytometer (BD Biosciences, NJ, USA. The data were processed with FlowJo Version 7.6.5 (Tree Star, Ashland, USA). The gating strategy is presented in Fig 3A. Cy-5 positive cells (as compared to control sample) were calculated as apoptotic. Cell cycles of non-apoptotic cells were analyzed using the built in FlowJo Cell Cycle Analysis module. Three independent biological replicates were done for each cell line/drug combination with exception of FU-DDLS-1 and T1000 –for which we only had two replicates available.
# [3] = tested on: liposarcoma cell lines; test: TUNEL apoptosis assay by flow cytometry; type: cell-based, human; conditions: growth arresting concentration, 17-72h, majority of cell lines
# Procedure: as §2
# [4] = tested on: NRH-LS1 liposarcoma cell line; test: CellTiter-Glo viability, GR50, 72h; type: cell-based, human; conditions: NRH-LS1, 72h, read-out: Half maximum effective concentration corrected for cell growth (GR50)
# Procedure: (§3) Cell viability was measured using the CellTiter-Glo Luminescent Cell Viability Assay (Promega, Wisconsin, United States). For each experiment the same cell numbers were seeded as for the proliferation experiments. Seven drug concentrations were used, starting from 100μM with 10-fold dilutions and also a vehicle control appropriate for each drug (DMSO or ethanol). After 72h of drug or vehicle control treatment levels of ATP were measured with CellTiter-Glo. The data from six to nine biological replicates, each with three technical replicates were collected. A nonlinear regression model with different four-parameter log-logistic function was used for modelling of the drug dose-response using ‘GRmetrics’ R package version 1.8.1 [26]. The calculated GR50 metric is equivalent to the IC50 metric but takes into account the growth rate of cells. Therefore, it estimates better the effect of the compound on cell viability and allows for comparison between different cell lines with different growth rates.
# [5] = tested on: SA-4 liposarcoma cell line; test: CellTiter-Glo viability, GR50, 72h; type: cell-based, human; conditions: SA-4, 72h, read-out: Half maximum effective concentration corrected for cell growth (GR50)
# Procedure: as §3
# [6] = tested on: LPS510 liposarcoma cell line; test: CellTiter-Glo viability, GR50, 72h; type: cell-based, human; conditions: LPS 510, 72h, read-out: Half maximum effective concentration corrected for cell growth (GR50)
# Procedure: as §3
# [7] = tested on: LPS141 liposarcoma cell line; test: CellTiter-Glo viability, GR50, 72h; type: cell-based, human; conditions: LPS 141, 72h, read-out: Half maximum effective concentration corrected for cell growth (GR50)
# Procedure: as §3
# [8] = tested on: SW872 liposarcoma cell line; test: CellTiter-Glo viability, GR50, 72h; type: cell-based, human; conditions: SW 872, 72h, read-out: Half maximum effective concentration corrected for cell growth (GR50)
# Procedure: as §3
# [9] = tested on: T449 liposarcoma cell line; test: CellTiter-Glo viability, GR50, 72h; type: cell-based, human; conditions: T449, 72h, read-out: Half maximum effective concentration corrected for cell growth (GR50)
# Procedure: as §3
# [10] = tested on: FU-DDLS-1 liposarcoma cell line; test: CellTiter-Glo viability, GR50, 72h; type: cell-based, human; conditions: FU-DDL S-1, 72h, read-out: Half maximum effective concentration corrected for cell growth (GR50)
# Procedure: as §3
# [11] = tested on: T1000 liposarcoma cell line; test: CellTiter-Glo viability, GR50, 72h; type: cell-based, human; conditions: T1000, 72h, read-out: Half maximum effective concentration corrected for cell growth (GR50)
# Procedure: as §3
# [12] = tested on: LPS853 liposarcoma cell line; test: CellTiter-Glo viability, GR50, 72h; type: cell-based, human; conditions: LPS 853, 72h, read-out: Half maximum effective concentration corrected for cell growth (GR50)
# Procedure: as §3
# [13] = tested on: LS2 liposarcoma cell line; test: CellTiter-Glo viability, GR50, 72h; type: cell-based, human; conditions: LS2, 72h, read-out: Half maximum effective concentration corrected for cell growth (GR50)
# Procedure: as §3
# [14] = tested on: T778 liposarcoma cell line; test: CellTiter-Glo viability, GR50, 72h; type: cell-based, human; conditions: T778, 72h, read-out: Half maximum effective concentration corrected for cell growth (GR50)
# Procedure: as §3
# [15] = tested on: LiSa-2 liposarcoma cell line; test: CellTiter-Glo viability, GR50, 72h; type: cell-based, human; conditions: LiSa-2, 72h, read-out: Half maximum effective concentration corrected for cell growth (GR50)
# Procedure: as §3
# [16] = tested on: GOT3 liposarcoma cell line; test: CellTiter-Glo viability, GR50, 72h; type: cell-based, human; conditions: GOT3, 72h, read-out: Half maximum effective concentration corrected for cell growth (GR50)
# Procedure: as §3
# [17] = cited from earlier work
# [18] = tested on: liposarcoma cell lines; test: IncuCyte cell proliferation assay (growth reducing/arresting concentration); type: cell-based, human; conditions: complete growth arrest between 96 and 120h
# Procedure: as §1, with “15-30%” for “15–30%”, “'[…]” for “‘emmeans’ R”, “([…],” for “(T449,”
# [19] = 120h treatment at growth arresting concentration
# [20] = intravenous, phase I, maximum tolerated dose
compound,measurement,setting,value
COc1ncc(-c2ccc3nccc(-c4ccnnc4)c3c2)cc1NS(=O)(=O)c1ccc(F)cc1F [GSK2126458],reversibility of growth inhibition after drug removal,[1]; [19],All of the tested cell lines regained their growth rate
same,time to regain growth rate after withdrawal,"[1]; all tested cell lines, 120h treatment at growth arresting concentration",≤ 3 h
same,concentration needed for irreversible growth arrest relative to growth arresting concentration,"[1]; cell lines that resumed growth, 100x for GOT3 with GSK2126458",10 x higher
same,cell cycle phase in which cells are blocked,[2],G1 phase
same,apoptosis (increase in % of apoptotic cells),[3],≤ 5%
same,IC50,[4]; Homo sapiens,469 nM
same,IC50,[5]; Homo sapiens,86 nM
same,IC50,[6]; Homo sapiens,82 nM
same,IC50,"[7]; Homo sapiens, LPS141",182 nM
same,IC50,"[8]; Homo sapiens, SW872",401 nM
same,IC50,[9]; Homo sapiens,10 nM
same,IC50,[10]; Homo sapiens,96 nM
same,IC50,[11]; Homo sapiens,14 nM
same,IC50,[12]; Homo sapiens,50 nM
same,IC50,[13]; Homo sapiens,110 nM
same,IC50,[14]; Homo sapiens,52 nM
same,IC50,[15]; Homo sapiens,54 nM
same,IC50,[16]; Homo sapiens,28 nM
same,Cmax,[17]; phase I trial of multiple tumor types,~100 nM
same,Cmax,"[17]; read-out: clinically relevant concentration (Cmax or Css), values show Cmax or Css (italics), patients",100 nM
CC(C)C[C@H](NC(=O)CNC(=O)c1cc(Cl)ccc1Cl)B1OC(=O)C(CC(=O)O)(CC(=O)O)O1 [MLN9708],reversibility of growth inhibition after drug removal,[1]; [19],irreversibly inhibited growth of all tested cell lines
same,cell cycle phase in which cells are blocked,[2],less specific arrest
same,apoptosis (increase in % of apoptotic cells),[3],above 5%
same,IC50,[4],743 nM
same,IC50,[5],325 nM
same,IC50,[6],841 nM
same,IC50,[7],522 nM
same,IC50,[8],553 nM
same,IC50,[9],1030 nM
same,IC50,[10],635 nM
same,IC50,[11],463 nM
same,IC50,[12],95 nM
same,IC50,[13],629 nM
same,IC50,[14],774 nM
same,IC50,[15],745 nM
same,IC50,[16],99 nM
same,concentration required to completely arrest more than half of the cell lines,[18],at least 1 μM
same,Cmax,"[17]; human, in vivo",30 to 300 nM
same,Cmax,[17]; [20],≤ 1400 nM
same,Css,[17]; [20],30 to 300 nM
